ChEMBL document CHEMBL1137320, “A novel class of carbonic anhydrase inhibitors: glycoconjugate benzene sulfonamides prepared by "click-tailing"” (J Med Chem, 2006)

Each molecule was assayed against Carbonic anhydrase 9 (Homo sapiens, UniProt Q16790).

SMILES | Ki [nM]
CC(=O)N[C@@H]1[C@@H](OC(C)=O)[C@H](OC(C)=O)[C@@H](COC(C)=O)O[C@H]1n1cc(COC(=O)c2ccc(S(N)(=O)=O)cc2)nn1 | 1200
NS(=O)(=O)c1ccc(C(=O)NCc2cn([C@@H]3O[C@H](CO)[C@@H](O)[C@H](O)[C@H]3O)nn2)cc1 | 442
CC(=O)OC[C@H]1O[C@@H](n2cc(CNC(=O)c3ccc(S(N)(=O)=O)cc3)nn2)[C@H](OC(C)=O)[C@@H](OC(C)=O)[C@H]1OC(C)=O | 76
CC(=O)OC[C@H]1O[C@@H](n2cc(CNC(=O)c3ccc(S(N)(=O)=O)cc3)nn2)[C@H](OC(C)=O)[C@@H](OC(C)=O)[C@@H]1OC(C)=O | 430
NS(=O)(=O)c1ccc(C(=O)OCc2cn([C@@H]3O[C@H](CO)[C@@H](O)[C@H](O)[C@H]3O)nn2)cc1 | 183

The remaining molecules from weak to strong by Ki, led by results:

Ki [nM] | SMILES
471 | COC(=O)[C@H]1O[C@@H](n2cc(CNC(=O)c3ccc(S(N)(=O)=O)cc3)nn2)[C@H](OC(C)=O)[C@@H](OC(C)=O)[C@@H]1OC(C)=O
241 | COC(=O)[C@H]1O[C@@H](n2cc(COC(=O)c3ccc(S(N)(=O)=O)cc3)nn2)[C@H](O)[C@@H](O)[C@@H]1O
204 | CO[C@H]1O[C@H](Cn2cc(CNC(=O)c3ccc(S(N)(=O)=O)cc3)nn2)[C@@H](O)[C@H](O)[C@H]1O
130 | CC(=O)OC[C@H]1O[C@@H](n2cc(COC(=O)c3ccc(S(N)(=O)=O)cc3)nn2)[C@H](OC(C)=O)[C@@H](OC(C)=O)[C@@H]1O[C@H]1O[C@H](COC(C)=O)[C@@H](OC(C)=O)[C@H](OC(C)=O)[C@H]1OC(C)=O
104 | C#CCOC(=O)c1ccc(S(N)(=O)=O)cc1
96 | NS(=O)(=O)c1ccc(C(=O)OCc2cn([C@@H]3OC[C@@H](O)[C@@H](O)[C@@H]3O)nn2)cc1
65 | NS(=O)(=O)c1ccc(C(=O)OCc2cn([C@@H]3O[C@H](CO)[C@H](O)[C@H](O)[C@H]3O)nn2)cc1
